| SMILES | melting point [°C] |
| --- | --- |
| CCOc1cc(C(Cl)(Cl)Cl)cc(OC)n1 | 36 to 38 |
| CC(C)(C)[C@H]1OC(=O)[C@H](c2cccc(Cl)c2)O1 | 40 to 42 |
| Cc1cn([C@H]2C=C[C@@H](O)C2)c(=O)nc1-n1cncn1 (racemic) | 143 to 146 |
| CCOC(=O)CSc1nc(Cl)cc(NCc2ccc(F)cc2)n1 | 70 to 75 |
| CSc1nc([C@@H]2C[C@H]2c2nc3ccccc3n2C)cc(-n2nc(C)nc2C)n1 (relative stereo) | 157 to 159 |
| CN1CC(CCCl)Oc2cc(Cl)ccc2C1=S (centres undefined) | 105 to 106 |
| CCCCCCCCSC(CCCCC)CCn1ccnc1 (centres undefined) | 105 to 108 |
| Cc1oc(-c2ccccc2)nc1COc1ccc(CCCCCO)cc1 | 78 to 79 |
| CC(C)(C)[Si](C)(C)CCCSCCNC(=O)n1cc(F)c(=O)[nH]c1=O | 123 to 124 |
| CSc1ncc2c(n1)C(C)CNN(C)C2=O (centres undefined) | 153 to 155 |
| CCC(CC)C(=O)C1=C(O)c2cc(OC)c(OC)c(OC)c2C(O)(c2ccc(OC)c(OC)c2)C1C(=O)OC (centres undefined) | 156 to 157 |
| FC(F)(F)c1ccc(-c2nccc(CBr)n2)cc1 | 125 |
| Cc1cc(C)c2cc(-c3ccccc3)c(=O)[nH]c2n1 | 258 to 260 |
| CC(C)NCC(O)c1ccc2c(c1)OCO2 (centres undefined) | 117 to 118 |
| CCOC(=O)c1cc(=O)c2cc3c(c(CC(O)CO)c2o1)CCCC3 (centres undefined) | 142 to 144 |
| COc1ccc2c(c1)CCC1C2CCC2(C)C(=O)CC(C)(C)C12 (centres undefined) | 145 to 148 |
| COc1cc2c(cc1OC)N(C(C)=O)CC(N(C)C)C2 (centres undefined) | 145 to 147 |
| C#CCn1c(-c2c(Cl)cccc2Cl)nc(-c2ccncc2)c1-c1ccc(Cl)cc1 | 169 to 172 |
| CCc1ccc(-c2ncccc2S(=O)(=O)Nc2ncc(C)nc2OC)cc1 | 73 |
| CCOC(=O)CCCSc1nnc(S)s1 | 107 to 108 |
| CCc1ncnc(NC(CC)c2ccc(Oc3ncccn3)cc2)c1Cl (centres undefined) | 100 to 112 |
| Cc1cc2nc(-c3cccnc3N)n(-c3ccc(CC(=O)Nc4ccc5ncccc5c4)cc3)c2nc1-c1cccnc1 | 176 to 178 |
| Cc1ncc(CNC(=O)c2nc3n(c(=O)c2O)CCOC3(C)C)s1 | 245 |
| Cc1cccc(-n2ncc(C)c2-c2cc3cnccc3s2)n1 | 155 to 156 |
| CSc1c(C#N)c(=O)n(C)c(=O)n1C | 118 to 120 |
| Nc1ncc(-c2ccc(=O)[nH]n2)c(-c2cccc(F)c2)n1 | 249 |

| SMILES | melting point [°C] |
| --- | --- |
| Cc1c(C)n(CC=C(Cl)Cl)c2c(OCc3ccccc3)nncc12 | 149 to 151 |
| COc1ccc(-n2nc(-c3ccc(OC)c(CCC(=O)O)c3OC)cc2-c2ccc(Cl)cc2)cc1 | 100 to 101 |
| N#Cc1cc(Cl)cc(CO)c1 | 110 to 111 |
| CC(C)N(C(=O)CC=C1CSC(N)=N1)c1ccc(Cl)cc1 | 145 to 147 |
| O[C@H](COc1cccc2[nH]ccc12)CN1CC=C(c2c[nH]c3cccc(F)c23)CC1 | 90 to 95 |
| CNc1cc(O)c(OCCO)cc1[N+](=O)[O-] | 210 |
| O=S1(=O)NCN(C2CC2)c2c1ccc(Cl)c2Cl | 132 to 133 |
| N#Cc1cccc(-c2ccc3c(Cl)cnc(Cl)c3c2)c1 | > 300 |
| O=Cc1cc(OCCCC(=O)O)ccc1[N+](=O)[O-] | 112 to 114 |
| O=C(CSCc1cc(Br)cc2[nH]c(=O)c(=O)[nH]c12)Nc1ccccc1 | > 250 |
| CC(C)Oc1cc(N2CCC(C(F)(F)F)CC2=O)c(F)cc1Cl (centres undefined) | 98 to 102 |
| C[C@@H](Cn1ncc2ccc3oc(C(N)=O)nc3c21)N=[N+]=[N-] | 162 to 164 |
| CCOC(=O)COC1CC(C)(C)N(O)C(C)(C)C1 | 41 to 43 |
| Nc1ccnc(SCCCCN2C(=O)c3ccccc3C2=O)n1 | 164 to 167 |
| Cn1nnnc1SCCCn1cc(C2=C(c3cn(C)c4ccccc34)C(=O)NC2=O)c2ccccc21 | 95 to 97 |
| CN(CCO)c1nc(N)nc(-c2cc(Cl)ccc2Cl)n1 | 153 to 155 |
| CSc1nnc(-c2ccc3occ(-c4ccccc4Cl)c3c2)o1 | 137 to 138 |
| O=S(=O)(NCCCCOc1ccc(-c2ccncn2)cc1)c1ccc(Br)cc1 | 131 to 133 |
| COc1ccc(-c2cn(C)cc(-c3ccccc3)c2=O)cc1C | 157 to 160 |
| C(#Cc1cc2ccccc2s1)c1cccs1 | 114 to 116 |
| Cc1ccc2c([N+](=O)[O-])c(Cl)ccc2n1 | 123 to 124 |
| CCc1cccc2c(O)cnnc12 | 160 to 161 |
| CCNC(=O)N(CC)C(=O)Nc1ccn(Cc2ccccc2Cl)c(=O)c1NC(=O)N[C@@H](CC(=O)O)c1ccc(C)cc1 | 128 to 130 |
| C=CCN(CC=C)C(=O)n1cnc(S(C)(=O)=O)n1 | 52 to 54 |
| COC1(c2nc3ccccc3s2)C=CC(=O)C=C1 | 123 |
| CN(C)CCc1c(-c2ccc3ccccc3c2)[nH]c2ccccc12 | 185 to 186 |

Now from value to compound:

| melting point [°C] | SMILES |
| --- | --- |
| 50 to 57 | COc1ccc2c(C(=O)c3ccc(OC4CCCCC4N4CCOCC4)cc3)c(-c3ccc(OCCN4CCCC4)cc3)sc2c1 (centres undefined) |
| 68 | C=C(C)C(=O)OCCCOc1ccc2cc(OC(=O)C(=C)C)ccc2c1 |
| 238 to 240 | CS(=O)(=O)c1ccc(Nc2cc(N3CCOCC3)nc(-c3ccccc3)n2)cc1 |
| 107 to 109 | COC(=O)C1(N(OC2CCCO2)C(=O)Cc2c(C)cc(C)cc2C)CCN(OC)CC1 (centres undefined) |
| 170 to 174 | C=Cc1c(-c2ccccc2)coc1C(=O)NNC(=O)c1ccc(O)c(C#N)c1 |
| 212 to 213 | O=C(NC1CCN(CCCOc2ccc3c4c(c(=O)oc3c2)CCC4)CC1)c1ccc([N+](=O)[O-])cc1 |
| 162 to 164 | CCOC(=O)c1ccc(OCCOc2ccc(-c3onc(SC)c3C#N)cc2)cc1 |
| 171 to 172 | COc1ccc2[nH]ccc(=O)c2c1OCc1ccccc1 |
| 237 | O=C(O)CC1CCCc2c(n(Cc3ccc(-n4ccnc4)cc3)c3ccc(F)cc23)C1 (centres undefined) |
| 150 | CCOC(=O)N1CCC(Nc2ccc(Cl)cc2N)CC1 |
| 62.5 to 63 | COC(=O)C(C)N(C(=O)CS)c1c(C)cccc1C (centres undefined) |
| 132 to 134 | Cc1c(C(=O)c2ccccc2)c(=O)n(C)c(=O)n1C |
| 180 to 185 | O=C(O)c1cccc(C(=O)c2ccc(C3CCCCC3)cc2)c1 |
| 268 to 270 | CCn1cc(C(=O)Nc2ccccc2)c(=O)n2c3ccccc3nc12 |
| 149 to 151 | c1ccc(Sc2c[nH]c3ccccc23)cc1 |
| 105 to 108 | Cc1ccc(S(=O)(=O)N[C@@H](C)C(=O)N[C@@H](Cc2ccccc2)C(=O)O)cc1 |
| 125 to 127 | CCCCC(Cc1ccc(OCCNC(=O)c2ccc(-c3ccc(CN(C)C)cc3)cc2)cc1)C(=O)O (centres undefined) |
| 253 | CCCOC(=O)c1ccc2c3cccc4cccc(c5ccc(C(=O)OCCC)c1c25)c43 |
| 155 to 157 | Cn1c(C(=O)O)c(-c2ccc(F)cc2)c2ccn(C)c2c1=O |
| 134 to 137 | CC(C)NCCC(CCN1CCCCC1)(C(N)=O)c1ccccc1Cl (centres undefined) |
| 74 to 76 | O=C(CCCCCCn1ccc2ccc(NC(=O)OC3CCCC3)cc21)NS(=O)(=O)c1ccccc1 |
| 263 to 267 | CCNC(=O)c1ccc(N2CCN(Cc3cnc4c(c3)[nH]c(=O)n3cccc43)CC2)c(F)c1 |
| 75 to 89 | CN1CCN(c2cc(Cl)cc3c2c(=O)n(Cc2cccc4ccccc24)c(=O)n3Cc2ccccc2)CC1 |
| 105 to 106 | C=C(CCC)C(=O)c1ccc(OC2(C(=O)O)CCC2)c(Cl)c1Cl |

| melting point [°C] | SMILES |
| --- | --- |
| 149 to 150 | CC(O)CC(=O)c1cccc2c1nc(-c1c(F)cccc1F)n2Cc1c(F)cccc1F (centres undefined) |
| 105 to 107 | Nc1ccc2c(c1)CC(NS(=O)(=O)c1ccccc1)C2 (centres undefined) |
| 226 to 228 | CC(=O)c1ccc(OCCCCCOc2ccc3c(=O)cc(C(=O)O)oc3c2)cc1O |
| 112 to 115 | CCCCOc1cc(OC)ccc1C(=O)c1cccc(C(=O)O)c1 |
| 86.2 to 88.4 | CCCCCc1ccc(-c2ccc(C3CC(CCCCC)C(=O)O3)cc2)cc1 (centres undefined) |
| 148 to 150 | O=C1N(Cc2ccc(Cl)o2)c2ccccc2C12COc1cc3c(cc12)OCO3 (centres undefined) |
| 81 to 84 | COc1ccc(-c2cc(Cc3ccc(OC)c(OC4CCCC4)c3)cn2-c2ccc(S(N)(=O)=O)cc2)cc1 |
| 189 to 192 | CN1[C@H](Cc2ccc(C(N)=NO)cc2)[C@@H]2C(=O)N(Cc3ccccc3)C(=O)[C@@H]2C1(C)C (racemic) |
| 85 to 87 | C=C[Si](C)(c1ccccc1)c1cccc(Cl)c1C(=O)NCC (centres undefined) |
| 58 to 62 | C=C(C(=O)OC)N(Cc1cc(C)ccc1NC(=O)c1ccccc1)S(=O)(=O)c1ccc(OC)cc1 |
| 106 to 108 | COc1ccccc1C(=O)Nc1ccc(COc2ccc3c(c2)CCC(CN(C)C)C3)cc1 (centres undefined) |
| 184 to 185 | O=C(CC12CC3CC(CC(C3)C1)C2)Nc1ccc2[nH]ccc2c1 |
| 205 to 210 | N#CC(C(=O)Nc1ccccc1)C(=O)c1nn(-c2ccccc2)c2c1CSc1ccc(N=CN3CCOCC3)cc1-2 (centres undefined) |
| 125 to 126 | OCC(O)CN1CCN(C(c2ccccc2)c2ccccc2)CC1 (centres undefined) |
| 197 | CCOC(=O)c1ccc(OCC2CN(c3ccc(S(C)(=O)=O)nn3)CCO2)cc1 (centres undefined) |
| 74 to 76.5 | NCC(O)COc1cccc(CN2CCCCC2)c1 (centres undefined) |
| 152 to 154 | Cc1ccc(C2CC(n3ccnc3)c3ccccc3N2)cc1 (centres undefined) |
| 92 to 94 | CN(C)CCCN1N=C2C(=Cc3ccccc3)CCCCC2C1c1ccccc1 (centres undefined) |
| 188 to 189 | CS(=O)(=O)c1cc(OCc2ccccc2)c(C(=O)O)s1 |
| 173 | COc1ccc(S(=O)(=O)N(C)c2ccc(Cl)cc2C(O)c2ccccc2Cl)cc1OC (centres undefined) |
| 168 to 169 | O=C(O)C1Cc2c(c(Cl)cc3c(-c4cccc(Cl)c4)noc23)O1 (centres undefined) |
| 201 to 203 | O=C(O)CCCCCNC(=O)c1ccc(NC(=O)c2ccccc2O)cc1 |
| > 300 | O=C(O)c1cn(-c2ccc(O)cc2)c2c(F)c(F)c(F)cc2c1=O |
